Patent US7488758B2 (Teva Pharmaceutical Fine Chemicals, S.r.l., priority 2004, dated 2009)
Read-outs that look alike come from different tables or passages of the source.

Details: for LOD (%) (water content by TGA) / Polymorph by XRD: one week exposure; for water content: after exposure at about 100% relative humidity for one week, hydrochloride; for water absorption, outcome in words: one-week exposure at 100% relative humidity
Procedure: After each exposure the water content was determined by Thermal Gravimetric Analysis (TGA) and reported as loss on drying (LOD) as a weight percentage and the crystal structure was determined by X-ray Diffraction (XRD).
The X-Ray diffraction (XRD) analysis was conducted using an ARL X-Ray powder diffractometer (model X'TRA-030) equipped with a Peltier detector, round standard aluminum sample holder with round zero background, and quartz plate. The scanning parameters were from a range of about 2-40 degree two θ (±0.2 degrees) and a continuous scan at a rate of about 3 degrees/min.
Thermal Gravimetric Analysis (TGA) was conducted using a Mettler Toledo TGA/SDTA 851^e using a sample weight of about 7-15 mg, a heating rate of about 10° C. min. under a N2 stream at a N2 flow rate of about 50 ml/min. The samples were scanned at a range between about 30° C. to about 250° C.

## CC(C)(C)NC[C@H](O)c1ccc(O)c(CO)c1.Cl [Polymorph B, (R)-α^1-[[(1,1-dimethylethyl)amino]methyl]-4-hydroxy-1,3-benzenedimethanol hydrochloride]
RH 0%
  LOD (%) (water content by TGA): 0.21%
RH 20%
  LOD (%) (water content by TGA): 0.25%
RH 40%
  LOD (%) (water content by TGA): 0.25%
RH 60%
  LOD (%) (water content by TGA): 0.30%
RH 80%
  LOD (%) (water content by TGA): 0.48%
  Polymorph by XRD: A >> B
RH 100%
  LOD (%) (water content by TGA): 36.0%
  Polymorph by XRD: only Polymorph A was detected
  water content: about 36%
  water absorption, outcome in words: absorbed sufficient water to dissolve the polymorph

## CC(C)(C)NC[C@H](O)c1ccc(O)c(CO)c1.Cl [Polymorph A, (R)-α^1-[[(1,1-dimethylethyl)amino]methyl]-4-hydroxy-1,3-benzenedimethanol hydrochloride, reference compound]
  water content: about 34%
  water absorption, outcome in words: absorbed sufficient water to dissolve the polymorph
